# Data: US6403626B1, “Benzimidazole derivatives” (Synaptic Pharmaceutical Corporation, priority 1994, dated 2002)
# Read-outs that look alike come from different tables or passages of the source.
# Experiments:
# [1] = target: T1, α1B Human Adrenergic Receptor (Homo sapiens, UniProt P35368); test: Equilibrium competition binding, [3H] prazosin, membranes of transfected LM(tk-) cells
# T1 construct: The entire coding region of α1B(1563 bp); expressed in transfected cells; host or cells: LM(tk-) cells
# T1 sequence (P35368 1-520): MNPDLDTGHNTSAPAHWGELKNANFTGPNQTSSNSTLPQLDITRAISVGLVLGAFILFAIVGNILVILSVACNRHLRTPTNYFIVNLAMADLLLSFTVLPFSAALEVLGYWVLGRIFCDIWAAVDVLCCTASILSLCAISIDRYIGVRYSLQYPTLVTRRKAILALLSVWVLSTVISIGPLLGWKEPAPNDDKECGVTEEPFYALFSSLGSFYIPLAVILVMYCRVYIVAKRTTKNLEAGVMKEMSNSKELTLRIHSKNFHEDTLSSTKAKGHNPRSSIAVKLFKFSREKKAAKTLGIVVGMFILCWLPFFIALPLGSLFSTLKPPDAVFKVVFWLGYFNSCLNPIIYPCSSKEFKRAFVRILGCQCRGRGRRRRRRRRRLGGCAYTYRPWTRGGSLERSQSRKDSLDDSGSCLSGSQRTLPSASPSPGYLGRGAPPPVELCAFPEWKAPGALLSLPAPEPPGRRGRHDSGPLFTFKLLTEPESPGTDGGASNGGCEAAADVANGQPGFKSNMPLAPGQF
# [2] = target: T2, α1A Human Adrenergic Receptor (Homo sapiens, UniProt P25100); test: as above
# T2 construct: expressed in transfected cells; host or cells: LM(tk-) cells
# T2 sequence (P25100 1-572): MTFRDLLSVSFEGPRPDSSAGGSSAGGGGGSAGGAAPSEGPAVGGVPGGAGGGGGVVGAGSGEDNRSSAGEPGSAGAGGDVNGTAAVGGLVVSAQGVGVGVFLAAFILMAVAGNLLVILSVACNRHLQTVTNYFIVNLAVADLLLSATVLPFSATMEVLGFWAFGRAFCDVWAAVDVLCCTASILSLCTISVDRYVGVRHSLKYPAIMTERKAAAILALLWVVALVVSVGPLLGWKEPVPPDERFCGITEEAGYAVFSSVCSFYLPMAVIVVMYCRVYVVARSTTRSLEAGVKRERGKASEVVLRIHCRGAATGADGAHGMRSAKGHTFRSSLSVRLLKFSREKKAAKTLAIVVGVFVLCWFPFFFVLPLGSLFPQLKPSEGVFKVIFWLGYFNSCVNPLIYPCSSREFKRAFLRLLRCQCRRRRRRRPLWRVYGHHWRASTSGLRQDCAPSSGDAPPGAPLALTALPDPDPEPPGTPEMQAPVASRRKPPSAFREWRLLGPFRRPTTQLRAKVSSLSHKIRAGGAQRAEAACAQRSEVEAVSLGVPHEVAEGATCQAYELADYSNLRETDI
# [3] = target: T3, α1C Human Adrenergic Receptor (Homo sapiens, UniProt P35348); test: as above
# T3 construct: expressed in transfected cells; host or cells: LM(tk-) cells
# T3 sequence (P35348 1-466): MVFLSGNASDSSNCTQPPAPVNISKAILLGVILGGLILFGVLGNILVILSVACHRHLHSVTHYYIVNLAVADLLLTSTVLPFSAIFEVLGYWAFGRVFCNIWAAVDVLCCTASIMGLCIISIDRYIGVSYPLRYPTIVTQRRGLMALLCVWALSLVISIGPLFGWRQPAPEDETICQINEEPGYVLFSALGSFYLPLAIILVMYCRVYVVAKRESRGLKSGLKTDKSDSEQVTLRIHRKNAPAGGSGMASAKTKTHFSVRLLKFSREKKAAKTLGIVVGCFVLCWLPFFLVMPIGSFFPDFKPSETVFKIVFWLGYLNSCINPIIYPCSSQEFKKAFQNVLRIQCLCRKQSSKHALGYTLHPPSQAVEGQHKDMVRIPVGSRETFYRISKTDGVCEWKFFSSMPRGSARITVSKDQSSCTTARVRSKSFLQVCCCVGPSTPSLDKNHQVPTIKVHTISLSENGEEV
# Procedure: Binding and functional assays were performed using stably transfected human alpha adrenergic receptors. Equilibrium competition binding assays were performed with membrane preparations from cultured LM(tk-) cells stably transfected with the cloned human adrenoceptor subtypes except for α2b, which was expressed in Y-1 cells, using [^3H] prazosin for α1 receptors and [^3H] rauwolscine for α2 receptors.
# Transfected cells from culture flasks were scraped into 5 ml of 5 mM Tris-HCl, 5 mM EDTA, pH 7.5, and lysed by sonication. The cell lysates were centrifuged at 1000 rpm for 5 min at 4° C., and the supernatant was centrifuged at 30,000×g for 20 min at 4° C. The pellet was suspended in 50 mM Tris-HCl, 1 mM MgCl2, and 0.1% ascorbic acid at pH 7.5. Binding of α2 antagonist [^3H] rauwolscine ([…]) to membrane preparations of LM(tk-) cells was done in a final volume of 0.25 ml and incubated at 37° C. for 20 min. Nonspecific binding was determined in the presence of 10 μM phentolamine. The reaction was stopped by filtration through GF/B filters using a cell harvester.
# The construct involved ligation three partial overlapping fragments: a 5′ 0.6 kb HincII genomic clone, a central 1.8 EcoRI hippocampal cDNA clone, and a 3′ 0.6 Kb PstI genomic clone. The hippocampal cDNA fragment overlaps with the 5′ and 3′ genomic clones so that the HincII and PstI sites at the 5 and 3′ ends of the cDNA clone, respectively, were utilized for ligation. This full-length clone was cloned into the KpnI site of the expression vector, using the 5′ and 3′ KpnI sites of the fragment, derived from vector (i.e., pBluescript) and 3′-untranslated sequences, respectively. Stable cell lines were selected as described above.
# [4] = target: T4, α2C Human Adrenergic Receptor (Homo sapiens, UniProt P18825); test: Equilibrium competition binding, [3H] rauwolscine, membranes of transfected LM(tk-) cells
# T4 sequence (P18825 1-462): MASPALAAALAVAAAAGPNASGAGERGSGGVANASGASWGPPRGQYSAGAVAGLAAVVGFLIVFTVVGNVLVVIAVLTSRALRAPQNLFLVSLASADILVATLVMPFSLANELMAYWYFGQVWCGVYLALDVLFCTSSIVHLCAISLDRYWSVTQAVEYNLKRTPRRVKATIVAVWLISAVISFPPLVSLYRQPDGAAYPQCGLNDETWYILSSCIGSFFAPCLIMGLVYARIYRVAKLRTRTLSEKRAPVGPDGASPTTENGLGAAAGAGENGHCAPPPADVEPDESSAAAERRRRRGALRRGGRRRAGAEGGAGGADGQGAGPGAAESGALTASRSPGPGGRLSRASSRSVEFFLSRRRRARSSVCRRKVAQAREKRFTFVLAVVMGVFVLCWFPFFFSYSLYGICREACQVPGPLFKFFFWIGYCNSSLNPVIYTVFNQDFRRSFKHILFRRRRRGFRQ
# [5] = cloned human receptor, [3H] prazosin, read-out: pKi Alpha-1 B (converted)
# [6] = cloned human receptor, [3H] prazosin, read-out: pKi Alpha-1 C (converted)
# [7] = cloned human receptor, [3H] prazosin, read-out: pKi Alpha-1 A (converted)
# [8] = cloned human receptor, [3H] prazosin
SMILES,"Ki [1, 5] [nM]",Ki [2] [nM],"Ki [3, 6] [nM]",Ki [4] [nM],further results
"c1nc2ccc(NC3=NCCN3)cc2[nH]1 [Example 1, 5-(2-Imidazolin-2-ylamino)Benzimidazole]",24500,6760,5250,70.8,–
"Brc1c(NC2=NCCN2)ccc2nc[nH]c12 [Example 2, 4-Bromo-5-(2-imidazolin-2-ylamino)Benzimidazole]",–,955,–,97.7,Ki [1]: 5890 nM; Ki [3]: 1700 nM
"Clc1c(NC2=NCCN2)ccc2nc[nH]c12 [Example 3, 4-Chloro-5-(2-imidazolin-2-ylamino)Benzimidazole]",8130,537,1910,100,–
"Cc1c(N=C2NCCN2)ccc2[nH]cnc12 [Example 4, 4-Methyl-5-(2-imidazolin-2-ylamino)Benzimidazole]",2750,–,724,25.7,"Ki [2, 7]: 603 nM"
"Ic1c(NC2=NCCN2)ccc2nc[nH]c12 [Example 5, 4-Iodo-5-(2-imidazolin-2-ylamino)Benzimidazole]",1820,537,2240,24,–
"CCCc1c(NC2=NCCN2)ccc2nc[nH]c12 [Example 7, 4-n-Propyl-5-(2-imidazolin-2-ylamino)Benzimidazole]",1230,269,2000,41.7,–
"CCCCc1c(NC2=NCCN2)ccc2nc[nH]c12 [Example 8, 4-n-Butyl-5-(2-imidazolin-2-ylamino)Benzimidazole]",2630,676,2000,–,–
"Cn1cnc2cc(NC3=NCCN3)ccc21 [Example 9, 1-Methyl-5-(2-imidazolin-2-ylamino)Benzimidazole]",13500,2750,6760,–,–
"Cn1cnc2c(Br)c(NC3=NCCN3)ccc21 [Example 10, 1-Methyl-4-bromo-5-(2-imidazolin-2-ylamino)Benzimidazole]",3800,617,851,15.5,–
"Cn1cnc2ccc(NC3=NCCN3)c(Br)c21 [Example 12, 3-Methyl-4-bromo-5-(imidazolin-2-ylamino)Benzimidazole]",–,–,–,–,"pKi Alpha-1 B [1, 8]: 6.46; pKi Alpha-1 A [2, 8]: 7.02; pKi Alpha-1 C [3, 8]: 6.46; pKi Alpha-2 C ([4]; cloned human receptor, [3H] rauwolscine): 7.59"
"COc1ccc(Cn2cnc3c(Br)c(NC4=NCCN4)ccc32)cc1 [Example 36, 1-(4-Methoxybenzyl)-4-bromo-5-(2-imidazolin-2-ylamino)Benzimidazole]",–,813,–,166,Ki [1]: 11000 nM; Ki [3]: 6460 nM
"OCCn1cnc2c(Br)c(NC3=NCCN3)ccc21 [Example 38, 1-(2-Hydroxyethyl)-4-bromo-5-(2-imidazolin-2-ylamino)Benzimidazole]",–,7240,–,1290,Ki [1]: 17400 nM; Ki [3]: 6760 nM
"Cc1nc2ccc(NC3=NCCN3)c(Br)c2[nH]1 [Example 42, 2-Methyl-4-bromo-5-(2-imidazolin-2-ylamino)Benzimidazole]",8510,1620,8130,214,–
"CCc1nc2ccc(NC3=NCCN3)c(Br)c2[nH]1 [Example 43, 2-Ethyl-4-bromo-5-(2-imidazolin-2-ylamino)Benzimidazole]",6920,1740,2140,–,–
"CC(C)c1nc2ccc(NC3=NCCN3)c(Br)c2[nH]1 [Example 44, 2-Isopropyl-4-bromo-5-(2-imidazolin-2-ylamino)Benzimidazole]",5890,2040,3090,214,–
"CC(C)(C)c1nc2ccc(NC3=NCCN3)c(Br)c2[nH]1 [Example 45, 2-tert-Butyl-4-bromo-5-(2-imidazolin-2-ylamino)Benzimidazole]",11500,4570,2190,–,–
"FC(F)(F)c1nc2ccc(NC3=NCCN3)c(Br)c2[nH]1 [Example 46, 2-Trifluoromethyl-4-bromo-5-(2-imidazolin-2-ylamino)Benzimidazole]",28200,7080,10700,–,–
"Brc1c(NC2=NCCN2)ccc2nc(C(c3ccccc3)c3ccccc3)[nH]c12 [Example 48, 2-Diphenylmethyl-4-bromo-5-(2-imidazolin-2-ylamino)Benzimidazole]",49,–,120,245,"Ki [2, 7]: 1230 nM"
"Brc1cc2nc[nH]c2c(Br)c1NC1=NCCN1 [Example 50, 4,6-Dibromo-5-(2-imidazolin-2-ylamino)Benzimidazole]",166,35.5,776,24.5,–
"Clc1cc(NC2=NCCN2)cc2[nH]cnc12 [Example 53, 7-Chloro-5-(2-imidazolin-2-ylamino)Benzimidazole]",1910,309,1000,89.1,–
"CCCCc1cc(NC2=NCCN2)cc2[nH]cnc12 [Example 56, 7-Butyl-5-(2-imidazolin-2-ylamino)Benzimidazole]",5130,1260,589,–,–
"Clc1cc(NC2=NCCN2)c(Br)c2[nH]cnc12 [Example 60, 4-Bromo-7-chloro-5-(2-imidazolin-2-ylamino)Benzimidazole]",316,224,479,16.2,–
